Assay results taken from patent US20110178118A1, “PALONOSETRON FOR THE TREATMENT OF CHEMOTHERAPY INDUCED EMESES” (priority 2002, published 2011).
Marks after values point to notes of the source that are not given here.

Tests used:
[1] = Plasma half-life of palonosetron; type: in vivo; conditions: human
[2] = test system: Highly Emetogenic Chemotherapy-Induced Nausea and Vomiting; test: Phase II dose-ranging trial, single I.V. palonosetron, efficacy; conditions: for % CR(Day 5): 5-day complete response; for % CR(24 hr): complete response (no emesis, no rescue)
Procedure: A randomized, double-blind, multicenter, dose-ranging Phase II trial was performed to identify the dose response relationship among single I.V. doses of palonosetron. Patients receiving highly emetogenic chemotherapy including cyclophosphamide (>1100 mg/m2) and cisplatin (>70 mg/m2), commonly associated with delayed emesis, were assigned to one of five dose groups of a single I.V. administration of palonosetron. Palonosetron was administered alone (without dexamethasone) as a 30 second intravenous injection, 30 minutes prior to chemotherapy administration. The primary endpoint was 24-hour complete responses (no emesis, no rescue) (CR). Secondary endpoints included complete control (no emesis, no rescue, mild nausea) (CC) and 5-day CR.
161 patients (32 women, 129 men) participated.

[3] = palonosetron 0.3-1 mcg/kg single I.V.
[4] = palonosetron 3 mcg/kg single I.V.
[5] = palonosetron 10 mcg/kg single I.V.
[6] = palonosetron 30 mcg/kg single I.V.
[7] = palonosetron 90 mcg/kg single I.V.

Q: With `Cl.O=C1c2cccc3c2[C@H](CCC3)CN1[C@@H]1CN2CCC1CC2` [Palonosetron, (3aS)-2,3,3a,4,5,6-Hexahydro-2-[(S)-1-Azabicyclo[2.2.2]oct-3-yl]2,3,3a,4,5,6-hexahydro-1-oxo-1Hbenz[de]isoquinoline hydrochloride] as the molecule, how does the half-life [1] read?
A: The half-life was ~40 h.

Q: And the “% CR(Day 5)” value [2, 3]?
A: The value was 17%.

Q: What about the “% CR(24 hr)” value [2, 3] of the same molecule?
A: The value was 24%.

Q: What about the “% CR(Day 5)” value [2, 4] of the same molecule?
A: Its value is 17%.

Q: And the “% CR(24 hr)” value [2, 4]?
A: The value was 46%.

Q: What about the “% CR(Day 5)” value [2, 5] of the same molecule?
A: Its value is 32%.

Q: And the “% CR(24 hr)” value [2, 5]?
A: The value was 40%.

Q: And the “% CR(Day 5)” value [2, 6]?
A: The value was 33%.

Q: What about the “% CR(24 hr)” value [2, 6] of the same molecule?
A: The value was 50* %.

Q: And the “% CR(Day 5)” value [2, 7]?
A: The value was 20%.

Q: And the “% CR(24 hr)” value [2, 7]?
A: The value was 46%.
